Each structure is given as a SMILES string.

One experiment has as its system PTP1B.
Test: not given
The conditions noted are these: read-out: previously reported IC50-value (PTP1B); cited from earlier work. Details: method as in PMID 23704520.
In the case of `CC1(C)CC[C@]2(C(=O)O)CC[C@]3(C)C(=CC[C@@H]4[C@@]5(C)C[C@@H](O)[C@H](O)C(C)(C)[C@@H]5CC[C@]43C)[C@@H]2C1` [Compound 13, Maslinic acid], the IC50 was 5930 nM.

The target of the next experiment is T1, recombinant human PTP1B (Homo sapiens, UniProt P18031).
T1 construct: purchased Enzo Life Sciences Inc. BML-SE332-0050
T1 sequence (P18031 1-322 limits assumed): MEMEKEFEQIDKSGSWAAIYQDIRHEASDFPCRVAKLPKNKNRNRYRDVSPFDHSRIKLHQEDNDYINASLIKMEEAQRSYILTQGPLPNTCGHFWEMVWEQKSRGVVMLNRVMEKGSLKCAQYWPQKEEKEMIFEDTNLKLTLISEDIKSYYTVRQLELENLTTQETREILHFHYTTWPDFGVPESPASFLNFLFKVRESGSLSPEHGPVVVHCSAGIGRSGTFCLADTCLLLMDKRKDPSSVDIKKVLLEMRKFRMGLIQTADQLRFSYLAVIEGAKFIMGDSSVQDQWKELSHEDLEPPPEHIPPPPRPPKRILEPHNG
In words: Microplate-based PTP1B inhibition assay (pNPP substrate). The class given is biochemical. To be noted: n = 3; IC50 ± standard error; pH 7, 25 °C, 0.5 mM pNPP. The source says: p-Nitrophenyl phosphate (pNPP), dimethyl sulfoxide (DMSO), sodium phosphate monobasic dihydrate, sodium phosphate dibasic, sodium hydroxide, sodium azide, tris-(hydroxymethyl)-aminomethane (Tris), bis-(2-hydroxyethyl)-imino-tris-(hydroxymethylmethane) (Bis-Tris), N,N,N′,N′-ethylenediaminetetraacetate (EDTA), dithiothreitol (DTT), methanol-d4, and HPLC grade acetonitrile were purchased from Sigma-Aldrich (St. Louis, MO, USA), recombinant human PTP1B (BML-SE332-0050, EC 3.1.3.48) was purchased from Enzo Life Sciences Inc. (Farmingdale, NY, USA), and formic acid was purchased from Merck (Darmstadt, Germany). Water was purified by deionization and filtration through a 0.22 μm membrane (Millipore, Billerica, MA, USA).
PTP1B inhibition assaying of the defatted extract, fraction F1 (from preparative HPLC: see Section 3.5) and microfractions (obtained as described below in Section 3.4) were performed according to the microplate-based method previously described. In brief, all solutions were prepared in a buffer of 50 mM Tris and 50 mM Bis-Tris containing 100 mM NaCL and adjusted to pH 7. […] The microplate was incubated for 10 min at 25 °C, and the reaction was started by addition of 0.001 μg/μL PTP1B stock solution (50 μL) in phosphate buffer (to give a final concentration of 0.05 µg PTP1B per well). […] For each microplate, blank samples (negative controls) containing buffer, enzyme, EDTA, DTT, and pNPP were measured in triplicate, and for the dilution series, RK682 was included as a reference inhibitory compound (i.e., positive control). The percentage inhibition of PTP1B was calculated according to the following equation: % inhibition=(1−SLOPEsample/SLOPEblank)×100
(§1) The high-resolution PTP1B biochromatograms (high-resolution PTP1B inhibition profiles) were constructed by plotting the inhibition values against the chromatographic retention time. Dose-response curves and IC50 values for dilution series of the crude extract and pure compounds were obtained using GraFit software, version 5.0.11 (Erithacus Software Limited, West Sussex, UK). For PTP1B IC50 values, the crude extract and isolated compounds were assessed by using the standard assay conditions described above. Nine dilutions were assessed in triplicates and percentage inhibition calculated as mean ± standard deviation in Microsoft Excel according to the above equation. The results were imported and used for assessing dose-response curves and IC50 values in GraFit software, version 5.0.11 (Erithacus Software Limited). Data were fitted to the equation f(x)=min+max−min/1+(x/IC50)^slope where min is the background, max–min is the y-range, x is the concentration, and slope is the Hill slope.
Consider `CC1(C)CC[C@]2(C(=O)O)CC[C@]3(C)C(=CC[C@@H]4[C@@]5(C)C[C@@H](O)[C@H](O)C(C)(C)[C@@H]5CC[C@]43C)[C@@H]2C1` [Compound 13, Maslinic acid], for which the IC50 amounted to 3210 ± 800 nM.

Regarding `CC1(C)CC[C@]2(C(=O)O)CC[C@]3(C)C(=CC[C@@H]4[C@@]5(C)CC[C@@H](O)C(C)(C)[C@@H]5[C@H](O)C[C@]43C)[C@@H]2C1` [Compound 14, 3-epi-sumaresinolic acid], the IC50 was determined as 2870 ± 400 nM.

As for `CC1(C)CC[C@]2(C(=O)O)CC[C@]3(C)C(=CC[C@@H]4[C@@]5(C)CC[C@H](O)C(C)(C)[C@@H]5[C@H](O)C[C@]43C)[C@@H]2C1` [Compound 15, Sumaresinolic acid], the IC50 stood at 1840 ± 300 nM.

Regarding `CC1(C)CC[C@]2(C(=O)O)CC[C@]3(C)C(=CC[C@@H]4[C@@]5(C)C[C@@H](O)[C@H](OC(=O)/C=C\c6ccc(O)cc6)C(C)(C)[C@@H]5CC[C@]43C)[C@@H]2C1` [Compound 16, 3-O-cis-p-coumaroyl-maslinic acid], the IC50 is 460 ± 70 nM.

On to `CC1(C)CC[C@]2(C(=O)O)CC[C@]3(C)C(=CC[C@@H]4[C@@]5(C)C[C@@H](O)[C@H](OC(=O)/C=C/c6ccc(O)cc6)C(C)(C)[C@@H]5CC[C@]43C)[C@@H]2C1` [Compound 17, 3-O-trans-p-coumaroyl-maslinic acid], for which the IC50 was found to be 1080 ± 300 nM.

Take `CC1C(C(=O)O)CCC2(C)CCC3(C)C(=CCC4C5(C)CC(O)C(OC(=O)C=Cc6ccc(O)cc6)C(C)(C)C5CCC43C)C12` (stereo not drawn) [Compound 18, 3-O-trans-p-coumaroyl-2α-hydroxydulcioic acid]: the IC50 stood at 1600 ± 500 nM.

The target of the next experiment is T1, recombinant human PTP1B. In words: High-resolution PTP1B inhibition profiling (biochromatogram of HPLC microfractions). The class given is biochemical. To be noted: HPLC microfractions of crude ethyl acetate extract, Figure 1; result in words. How it is done: PTP1B inhibition assaying of the defatted extract, fraction F1 (from preparative HPLC: see Section 3.5) and microfractions (obtained as described below in Section 3.4) were performed according to the microplate-based method previously described. In brief, all solutions were prepared in a buffer of 50 mM Tris and 50 mM Bis-Tris containing 100 mM NaCL and adjusted to pH 7. To each well containing microfractions or dilution series of pure compounds were added 18 µL of DMSO and 52 µL of 3.4 mM EDTA in Bis-Tris buffer (to give final well concentrations of 10% DMSO and 1 mM EDTA) as well as 60 µL of a Bis-Tris buffer solution containing 1.5 mM pNPP and 6 mM DTT in phosphate buffer (to give final well concentrations of 0.5 mM pNPP and 2 mM DTT). The microplate was incubated for 10 min at 25 °C, and the reaction was started by addition of 0.001 μg/μL PTP1B stock solution (50 μL) in phosphate buffer (to give a final concentration of 0.05 µg PTP1B per well). The reaction was monitored at 405 nm every 30 s for 10 min to yield the enzyme activity (expressed as cleavage rate AU/s) by using a Thermo Scientific Multiskan FC microplate photometer (Thermo Scientific, Waltham, MA, USA). For each microplate, blank samples (negative controls) containing buffer, enzyme, EDTA, DTT, and pNPP were measured in triplicate, and for the dilution series, RK682 was included as a reference inhibitory compound (i.e., positive control). The percentage inhibition of PTP1B was calculated according to the following equation: % inhibition=(1−SLOPEsample/SLOPEblank)×100
as §1, with “slope. Results are reported as IC50 values ± standard error.” for “slope.”
Microfractionation of the extract of M. albicans for high-resolution PTP1B inhibition profiling was conducted using an Agilent 1200 system (Santa Clara, CA, USA—HPLC system 1) comprising a G1311A quaternary pump, a G1322A degasser, a G1316A thermostatted column compartment, a G1315C photodiode array detector, a G1367C high-performance autosampler, and a G1364C fraction collector, controlled by Agilent ChemStation version B.03.02 software. Separations were performed by using a reversed-phase Phenomenex Luna C18(2) column (150 mm × 4.6 mm i.d., 3 μm particle size, 100 Å pore size) (Phenomenex, Torrance, CA, USA). A binary elution system of water: acetonitrile (95:5, solvent A) and acetonitrile: water (95:5, solvent B), both acidified with 0.1% formic acid, was used with a flow rate of 0.8 mL/min. […]
For the compound `O=C(/C=C/c1ccc(O)c(O)c1)O[C@@H]1O[C@H](COC(=O)c2cc(O)c(O)c(O)c2)[C@@H](OC(=O)c2cc(O)c(O)c(O)c2)[C@H](O)[C@H]1O` [Compound 2, 1-O-(E)-caffeoyl-4,6-di-O-galloyl-β-D-glucopyranose], the “PTP1B inhibitory activity in high-resolution inhibition profile of crude extract” value (“PTP1B inhibitory activity” below) is recorded as “PTP1B inhibitors”.

Turning to `C[C@@H]1O[C@@H](Oc2c(-c3cc(O)c(O)c(O)c3)oc3cc(O)cc(O)c3c2=O)[C@H](O)[C@H](O)[C@H]1O` [Compound 3, myricetin 3-O-α-L-rhamnopyranoside], the “PTP1B inhibitory activity” value is “PTP1B inhibitors”.

Consider `C[C@@H]1O[C@@H](Oc2c(-c3ccc(O)c(O)c3)oc3cc(O)cc(O)c3c2=O)[C@H](OC(=O)c2cc(O)c(O)c(O)c2)[C@H](O)[C@H]1O` [Compound 5, quercetin 3-O-(2″-galloyl)-α-L-rhamnopyranoside], for which the “PTP1B inhibitory activity” value was “PTP1B inhibitors”.

On to `COc1c(O)cc(-c2oc3cc(O)cc(O)c3c(=O)c2O[C@@H]2O[C@@H](C)[C@H](O)[C@@H](O)[C@H]2O)cc1O` [Compound 6, mearnsetin 3-O-α-L-rhamnopyranoside], for which the “PTP1B inhibitory activity” value is “PTP1B inhibitors”.

For `O=c1c(O[C@@H]2OC[C@H](O)[C@H](O)[C@H]2O)c(-c2ccc(O)cc2)oc2cc(O)cc(O)c12` [Compound 8, kaempferol 3-O-α-L-arabinopyranoside], the “PTP1B inhibitory activity” value is recorded as “PTP1B inhibitors”.

As a reminder, the IC50 is the concentration needed to halve the response being measured.

Values taken from publication PMC6100288 (Molecules : A Journal of Synthetic Chemistry and Natural …, 2018).
